19 compounds from patent US7759367B2, “Pharmaceutical compositions and their uses” (Eisai R&D Management Co., Ltd., priority 2001, dated 2010) can be followed below.

Read-outs that look alike come from different tables or passages of the source.

In one test the test system is male mice of ddy strain. Put plainly: Anticonvulsant action induced by AMPA (Test Example 2). Format: in vivo. The settings on record: 25 mg/kg orally, AMPA 2 nmole/5 μl/minute/mouse into lateral ventricle 30 minutes or 1 hour after dosing. Here is the method:
A test compound was suspended in a 0.5% methyl cellulose solution or in sesame oil and was orally administered (25 mg/kg) to male mice of ddy strain. After 30 minutes or 1 hour from the oral administration, AMPA was continuously injected (2 nmole/5 μl/minute/mouse) into lateral ventricle to induce the convulsions. The effect was judged by a time-extending action until the convulsion takes place by a continuous injection of AMPA.

A further test relates to Female Lewis rats. Description: Experimental autoimmune encephalomyelitis model (Test Example 10). The settings on record: p.o. 5, 10 and 20 mg/kg, 10-16 dpi. It counts as in vivo, rat. The procedure:
Female Lewis rats (205±10 g) obtained from Charles River, Kent UK, were housed in pairs under environmentally controlled conditions (6:00a.m.-6:00p.m. light/dark cycle; 22-24° C.; 45-55% humidity) and allowed free access to food and water. Experimental groups consisted of 9-12 animals. Rats were immunised in each hind foot with 20-50 μl of inoculum containing 50 μg guinea pig myelin basic protein (MBP; final concentration 2 mg/ml), emulsified in Freund's complete adjuvant (CFA; Sigma, UK) containing Mycobacterium tuberculosis H37Ra (final concentration 5.5 mg/ml; Difco Laboratories, UK). Animals were weighed and monitored daily and clinical disease scored as (0) no clinical signs; (1) flaccid tail and weight loss; (2) hind limb hypotonia with further weight loss; (3) complete hind limb paralysis; (4) paraplegia and (5) death. […] During the period of compound administration (10-16 days post immunisation; dpi) animals were scored 15 h after injection of vehicle or compound to avoid any acute effect of treatment on disease score. Compounds were dissolved/suspended in 0.5% methyl cellulose using a hand held Polytron homogeniser (PT1200; 2 min). Rats were dosed p.o. with either methyl cellulose vehicle (2.5 ml/kg) or compound at 5, 10 and 20 mg/kg.

Setting [1] is: primary culture of rat embryo cerebral cortex nerve cells, Fura2-AM, 2 μM AMPA, 1 μM MK-801.
Setting [2] is: suppression of AMPA-induced calcium influx into nerve cells, Table 2.
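Wherever IC50 is given: neurons cultured at least 8 to 10 days atop an astrocyte layer in 96-well plates, calcium entry read as the change in Fura2 fluorescence ratio at 340/380 nm excitation.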

Description for AMPA receptor: Cerebral cortex was cut out from the brain of rat of gestational 18 days and treated with trypsin and DNase to disperse the cells. The cells were flown by MEM containing 10% of serum, sown in a culture bottle and astrocytes were proliferated. The astrocytes were re-dispersed by trypsin and sown in a 96-well plate. After incubation for one week, it was confirmed that the astrocytes covered all over the bottom and then the nerve cells of cerebral cortex which was dispersed by the above method were sown thereupon. After incubation for 24 hours, the medium was changed, the incubation was carried out for one week and, after that, the medium was changed to that containing 1 μM of MK-801. Nerve cells which were incubated for not shorter than 8 to 10 days were used.
Calcium influx into the cells was measured using Fura2-AM which was a calcium-sensitive fluorescent dye. It was treated in a medium containing Fura2-AM for 1 hour, incorporated into the cells, exchanged to a Tyrode solution containing 1 μM MK-801 and stimulation was carried out using 2 μM AMPA. Change in the amount of calcium flown into the cells were measured as the change in the fluorescent intensity at the exciting wave length of 340/380 nm.

Regarding `N#Cc1ccccc1-c1cc(-c2ccccn2)cn(-c2cccc(N)c2)c1=O` [Example 9, 3-(2-Cyanophenyl)-5-(2-pyridyl)-1-(3-aminophenyl)-1,2-dihydropyridin-2-one], inhibition in the test on AMPA receptor (setting [1]) was half-maximal at 30 nM (IC50). For the same compound, the “Anticonvulsant action (time-extending action until convulsion by continuous AMPA injection)” value (“Anticonvulsant action” below) with male mice of ddy strain is reported as “significant anticonvulsant action”. As for `CN(C)c1cccc(-n2cc(-c3ccccn3)cc(-c3ccccc3C#N)c2=O)c1` [Example 12, 3-(2-Cyanophenyl)-5-(2-pyridyl)-1-(3-dimethylaminophenyl)-1,2-dihydropyridin-2-one], the midpoint of inhibition with AMPA receptor (setting [1]), the IC50, lay at 100 nM. In addition, the “Anticonvulsant action” value in the test on male mice of ddy strain is “significant anticonvulsant action”.

As to `N#Cc1ncccc1-c1cc(-c2ccccn2)cn(-c2ccccc2)c1=O` [Example 16, 3-(2-Cyano-3-pyridyl)-5-(2-pyridyl)-1-phenyl-1,2-dihydropyridin-2-one], the IC50 (in general, the concentration that inhibits the measured activity by half) with AMPA receptor (setting [1]) was determined as 100 nM. In addition, in the test with male mice of ddy strain, the “Anticonvulsant action” value is reported as “significant anticonvulsant action”.

The compound `N#Cc1ccccc1-c1cc(-c2ccccn2)cn(-c2cccnc2)c1=O` [Example 32, 3-(2-Cyanophenyl)-5-(2-pyridyl)-1-(3-pyridyl)-1,2-dihydropyridin-2-one] showed an IC50 in the test on AMPA receptor (setting [1]) of 100 nM. Moreover, the “Effect on EAE vs vehicle-administered group” value with Female Lewis rats was “superior effect to the vehicle-administered group”. Moreover, the “Anticonvulsant action” value with male mice of ddy strain is recorded as “significant anticonvulsant action”. `N#Cc1ccccc1-c1cc(-c2ccccc2)cn(-c2ccccc2)c1=O` [Example 41, 3-(2-Cyanophenyl)-1,5-diphenyl-1,2-dihydropyridin-2-one] displayed an IC50 with AMPA receptor (setting [1]) of 80 nM. The “Anticonvulsant action” value with male mice of ddy strain is “significant anticonvulsant action”.

With `O=c1c(-c2cccnc2F)cc(-c2ccccn2)cn1-c1ccccc1` [Example 76, 3-(2-Fluoro-3-pyridyl)-5-(2-pyridyl)-1-phenyl-1,2-dihydropyridin-2-one], in the test on Female Lewis rats, the “Effect on EAE vs vehicle-administered group” value is reported as “superior effect to the vehicle-administered group”. The “Anticonvulsant action” value in the test on male mice of ddy strain was “significant anticonvulsant action”. Turning to `N#Cc1cccnc1-c1cc(-c2ccccn2)cn(-c2ccccc2)c1=O` [Example 78, 3-(3-Cyano-2-pyridyl)-5-(2-pyridyl)-1-phenyl-1,2-dihydropyridin-2-one], the IC50 in the test with AMPA receptor (setting [1]) stood at 1400 nM. Besides, the “Anticonvulsant action” value in the test with male mice of ddy strain was “significant anticonvulsant action”. With `N#Cc1ccccc1-c1cc(-c2ccccn2)cn(-c2ccc(F)cc2)c1=O` [Example 91, 3-(2-Cyanophenyl)-5-(2-pyridyl)-1-(4-fluorophenyl)-1,2-dihydropyridin-2-one], in the test with AMPA receptor (setting [1]), the IC50 amounted to 50 nM. Further, the “Anticonvulsant action” value in the test with male mice of ddy strain is “significant anticonvulsant action”. `COc1ccccc1-n1cc(-c2ccccn2)cc(-c2ccccc2C#N)c1=O` [Example 126, 3-(2-Cyanophenyl)-5-(2-pyridyl)-1-(2-methoxyphenyl)-1,2-dihydropyridin-2-one]: the “Anticonvulsant action” value with male mice of ddy strain was “significant anticonvulsant action”. Take `O=c1c(-c2ccccc2Cl)cc(-c2ccccn2)cn1-c1cccnc1` [Example 128, 3-(2-Chlorophenyl)-5-(2-pyridyl)-1-(3-pyridyl)-1,2-dihydropyridin-2-one]: the “Anticonvulsant action” value in the test with male mice of ddy strain was “significant anticonvulsant action”. Take `N#Cc1sccc1-c1cc(-c2ccccn2)cn(-c2cccnc2)c1=O` [Example 137, 3-(2-Cyanothiophen-3-yl)-5-(2-pyridyl)-1-(3-pyridyl)-1,2-dihydropyridin-2-one]: the “Anticonvulsant action” value in the test with male mice of ddy strain is given as “significant anticonvulsant action”. On to `O=c1c(-c2cccnc2F)cc(-c2ccccn2)cn1-c1cccnc1` [Example 139, 3-(2-Fluoro-3-pyridyl)-5-(2-pyridyl)-1-(3-pyridyl)-1,2-dihydropyridin-2-one], for which the “Effect on EAE vs vehicle-administered group” value in the test on Female Lewis rats is listed as “superior effect to the vehicle-administered group”. The “Anticonvulsant action” value in the test on male mice of ddy strain is “significant anticonvulsant action”.

As to `N#Cc1ccccc1-c1cc(-c2ncccn2)cn(-c2ccccc2)c1=O` [Example 164, 3-(2-Cyanophenyl)-1-phenyl-5-(2-pyrimidinyl)-1,2-dihydropyridin-2-one], the IC50 in the test on AMPA receptor (setting [2]) was found to be 80 nM. The “Effect on EAE vs vehicle-administered group” value in the test with Female Lewis rats is listed as “superior effect to the vehicle-administered group”. Besides, the “Anticonvulsant action” value with male mice of ddy strain is reported as “significant anticonvulsant action”. For the compound `N#Cc1ccccc1-c1cc(-c2cnccn2)cn(-c2ccccc2)c1=O` [Example 199, 3-(2-Cyanophenyl)-1-phenyl-5-(2-pyrazinyl)-1,2-dihydropyridin-2-one], in the test with male mice of ddy strain, the “Anticonvulsant action” value was “significant anticonvulsant action”. For the compound `N#Cc1ccccc1-c1cc(-c2ncccn2)cn(-c2cccnc2)c1=O` [Example 261, 3-(2-Cyanophenyl)-1-(3-pyridyl)-5-(2-pyrimidinyl)-1,2-dihydropyridin-2-one], the “Effect on EAE vs vehicle-administered group” value in the test on Female Lewis rats is reported as “superior effect to the vehicle-administered group”. For the same compound, the “Anticonvulsant action” value with male mice of ddy strain is recorded as “significant anticonvulsant action”. Consider `O=c1c(-c2cccnc2F)cc(-c2ncccn2)cn1-c1ccccc1` [Example 262, 3-(2-Fluoropyridin-3-yl)-1-phenyl-5-(2-pyrimidinyl)-1,2-dihydropyridin-2-one], for which the IC50 in the test with AMPA receptor (setting [2]) was determined as 300 nM. In addition, in the test with Female Lewis rats, the “Effect on EAE vs vehicle-administered group” value was “superior effect to the vehicle-administered group”. Moreover, the “Anticonvulsant action” value in the test with male mice of ddy strain was “significant anticonvulsant action”. With `N#Cc1ncccc1-c1cc(-c2ncccn2)cn(-c2ccccc2)c1=O` [Example 264, 3-(2-Cyanopyridin-3-yl)-1-phenyl-5-(2-pyrimidyl)-1,2-dihydropyridin-2-one], the “Effect on EAE vs vehicle-administered group” value in the test on Female Lewis rats is reported as “superior effect to the vehicle-administered group”. Moreover, the “Anticonvulsant action” value in the test with male mice of ddy strain is listed as “significant anticonvulsant action”. As for `O=c1c(-c2ccccc2[N+](=O)[O-])cc(-c2ccccn2)cn1-c1ccccc1` [Example 270, 3-(2-Nitrophenyl)-1-phenyl-5-(2-pyridyl)-1,2-dihydropyridin-2-one], the “Anticonvulsant action” value in the test with male mice of ddy strain is “significant anticonvulsant action”.

Take `N#Cc1ccccc1-c1cc(-c2cccc(N)n2)cn(-c2ccccc2)c1=O` [Example 298, 5-(2-Aminopyridin-6-yl)-3-(2-cyanophenyl)-1-phenyl-1,2-dihydropyridin-2-one]: the “Anticonvulsant action” value in the test on male mice of ddy strain is given as “significant anticonvulsant action”.
